Experimental data reported in patent publication US10759767B2 (priority 2012, dated 2020).
Where two headings read alike, the source gives them in different places.

Columns and labels:
Botrytis cinerea = assay: Microtest: activity against the grey mold Botrytis cinerea (Botrci); format: cell-based; settings: Botrytis cinerea, 168 h, read-out: Observed efficacy
Phytophthora infestans = assay: microbe, parasite or virus in culture; format: cell-based; settings: Phytophthora infestans, 168 h, read-out: Observed efficacy
Leptosphaeria nodorum = assay: Microtest: activity against wheat leaf spots caused by Leptosphaeria nodorum (Leptno); format: cell-based; settings: Parastagonospora nodorum, 168 h, read-out: Observed efficacy
Septoria tritici = assay: Microtest: activity against leaf blotch on wheat caused by Septoria tritici (Septtr); format: cell-based; settings: solo product
Alternaria solani = assay: Microtest: activity against early blight caused by Alternaria solani (Alteso); format: cell-based; settings: Alternaria solani, 168 h, read-out: Observed efficacy
Pyricularia oryzae = assay: microbe, parasite or virus in culture; format: cell-based
[1] = Pyricularia oryzae, 168 h, read-out: Observed efficacy

In the case of `CC#CC(O)(Cn1cncn1)c1ccc(Oc2ccc(Cl)cc2)cc1Cl` (centres unmarked) [I-1, 2-[2-chloro-4-(4-chlorophenoxyl)phenyl]-1-(1,2,4-triazol-1-yl)pent-3-yn-2-ol], the inhibition of growth at 1e-06 ppm (Botrytis cinerea; solo 0.000001 ppm) was 4%, the inhibition of growth at 4e-06 ppm (Botrytis cinerea; solo 0.000004 ppm) was 0% and the inhibition of growth at 1.6e-05 ppm (Botrytis cinerea; solo 0.000016 ppm) was 1%. The inhibition of growth at 6.3e-05 ppm (Botrytis cinerea; solo 0.000063 ppm) was 0%, the inhibition of growth at […] (Botrytis cinerea; solo 0.063 ppm) was 16% and the inhibition of growth at 16 ppm (Phytophthora infestans) was 0%. It also gave an inhibition of growth at […] (Leptosphaeria nodorum; solo 0.063 ppm) of 19%, an inhibition of growth at 6.3e-05 ppm (Leptosphaeria nodorum; solo product, 0.000063 ppm) of 12% and a melting point of 137 °C. For the same compound, the inhibition of growth at 4e-06 ppm (Septoria tritici; Zymoseptoria tritici, 168 h, second Septtr microtest, 0.000004 ppm, read-out: Observed efficacy) was 11%, the inhibition of growth at […] (Septoria tritici; Zymoseptoria tritici, 168 h, second Septtr microtest, 0.00063 ppm, read-out: Observed efficacy) was 17% and the inhibition of growth at 6.3e-05 ppm (Septoria tritici; Zymoseptoria tritici, 168 h, 0.000063 ppm, read-out: Observed efficacy) was 17%. It also gave an inhibition of growth at […] (Alternaria solani; solo 0.00025 ppm) of 4%, an inhibition of growth at 0.001 ppm (Alternaria solani; solo 0.001 ppm) of 10% and an inhibition of growth at 0.001 ppm (Pyricularia oryzae; [1]) of 3%. It also gave an inhibition of growth at 0.016 ppm (Pyricularia oryzae; [1]) of 0% and an Observed efficacy (Pyricularia oryzae; solo product, 0.016 ppm) of 0%.
Work on `CC(C)C(O)(Cn1cncn1)c1ccc(Oc2ccc(Cl)cc2)cc1C(F)(F)F` (centres unmarked) [I-5, 2-[4-(4-chlorophenoxy)-2-(trifluoromethyl)phenyl]-3-methyl-1-(1,2,4-triazol-1-yl)butan-2-ol] yielded an inhibition of growth at […] (Botrytis cinerea; solo 0.063 ppm) of 14%, an inhibition of growth at […] (Botrytis cinerea; solo 0.25 ppm) of 27% and an inhibition of growth at 16 ppm (Phytophthora infestans) of 2%. For the same compound, the inhibition of growth at 63 ppm (Phytophthora infestans) was 45%, the inhibition of growth at […] (Leptosphaeria nodorum; solo 0.25 ppm) was 19% and the inhibition of growth at 0.001 ppm (Leptosphaeria nodorum; solo product, 0.001 ppm) was 9%. The inhibition of growth at […] (Leptosphaeria nodorum; solo product, 0.063 ppm) was 20%, the melting point was 114 °C and the inhibition of growth at 2.5e-07 ppm (Septoria tritici; Zymoseptoria tritici, 168 h, second Septtr microtest, 0.00000025 ppm, read-out: Observed efficacy) was 5%. The inhibition of growth at 1e-06 ppm (Septoria tritici; Zymoseptoria tritici, 168 h, second Septtr microtest, 0.000001 ppm, read-out: Observed efficacy) was 10%, the inhibition of growth at 1.6e-05 ppm (Septoria tritici; Zymoseptoria tritici, 168 h, 0.000016 ppm, read-out: Observed efficacy) was 13% and the Observed efficacy (Septoria tritici; second Septtr microtest, 0.000016 ppm) was 13%. It also gave an inhibition of growth at 4e-06 ppm (Alternaria solani; solo 0.000004 ppm) of 8%, an inhibition of growth at 0.004 ppm (Alternaria solani; solo 0.004 ppm) of 11% and an inhibition of growth at 0.016 ppm (Alternaria solani; solo 0.016 ppm) of 10%. It also gave an inhibition of growth at […] (Alternaria solani; solo 0.063 ppm) of 14%, an inhibition of growth at 1 ppm (Alternaria solani; solo 1 ppm) of 49% and an inhibition of growth at 0.001 ppm (Pyricularia oryzae; [1]) of 5%. It also gave an inhibition of growth at 0.004 ppm (Pyricularia oryzae; [1]) of 0%, an inhibition of growth at 0.016 ppm (Pyricularia oryzae; [1]) of 0% and an inhibition of growth at 1 ppm (Pyricularia oryzae; [1]) of 67%.
